Article PMC4858918, “Improving the N-terminal diversity of sansanmycin through mutasynthesis” (Microbial Cell Factories, 2016)
In brackets after ≈: the same amount, converted by molar mass.

How the values were obtained:
Assay in all cases: MIC, microplate Alamar blue assay (MABA)
Format in all cases: cell-based
[1] = tested on: M. tuberculosis FJ05189 (MDR clinical isolate); settings: Mycobacterium tuberculosis, read-out: MIC M. tuberculosis FJ05189
[2] = tested on: M. tuberculosis FJ05120 (MDR clinical isolate); settings: Mycobacterium tuberculosis, read-out: MIC M. tuberculosis FJ05120
[3] = tested on: M. tuberculosis FJ05195 (XDR clinical isolate); settings: Mycobacterium tuberculosis, read-out: MIC M. tuberculosis FJ05195

Row | SMILES | MIC [1] | MIC [2] | MIC [3]
1 | CC[C@@H](CO)NCCN[C@@H](CC)CO [Ethambutol] | 2 µg/mL (≈ 9.79 µM) | 0.5 µg/mL (≈ 2.45 µM) | > 128 µg/mL
2 | NNC(=O)c1ccncc1 [Isoniazid] | 8 µg/mL (≈ 58.3 µM) | 16 µg/mL (≈ 117 µM) | > 128 µg/mL
3 | CO[C@H]1/C=C/O[C@@]2(C)Oc3c(C)c(O)c4c(O)c(c(/C=N/N5CCN(C)CC5)c(O)c4c3C2=O)NC(=O)/C(C)=C\C=C\[C@H](C)[C@H](O)[C@@H](C)[C@@H](O)[C@@H](C)[C@H](OC(C)=O)[C@@H]1C [Rifampicin] | 4 µg/mL (≈ 4.86 µM) | > 128 µg/mL | > 128 µg/mL
4 | [H]/N=C(/N)N[C@H]1[C@H](O)[C@@H](O)[C@H](O[C@@H]2O[C@@H](C)[C@](O)(C=O)[C@H]2O[C@@H]2O[C@@H](CO)[C@H](O)[C@@H](O)[C@@H]2NC)[C@@H](N/C(N)=N\[H])[C@@H]1O [Streptomycin] | < 0.06 µg/mL | < 0.06 µg/mL | > 128 µg/mL
